Toxic doses and inconclusive results are not listed.
Test system: P388 leukemia ip, CD2F1 mice, survival T/C
Experiment: NCI In Vivo Anticancer Drug Screen. Data for tumor model P388 Leukemia (intraperitoneal) in CD2F1 (CDF1) mice
Conditions: endpoint: median survival time, higher = longer survival
Outline: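 Mice carrying the transplanted tumor received test compound or vehicle. Survival was recorded in each group, and the value is the treated-group measurement divided by that of the vehicle-treated control group.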

| SMILES | T/C (dose: 12.5 mg/kg/injection, schedule: Q01DX009 (ip), vehicle: saline with Tween-80) | T/C (dose: 25.0 mg/kg/injection, schedule: Q01DX009 (ip), vehicle: saline with Tween-80) | T/C (dose: 100.0 mg/kg/injection, schedule: Q01DX009 (ip), vehicle: saline sonified) | T/C (dose: 100.0 mg/kg/injection, schedule: Q01DX009 (ip), vehicle: saline with Tween-80) | T/C (dose: 100.0 mg/kg/injection, schedule: Q04DX003 (ip), vehicle: saline sonified) | T/C (dose: 200.0 mg/kg/injection, schedule: Q01DX009 (ip), vehicle: saline sonified) | T/C (dose: 200.0 mg/kg/injection, schedule: Q01DX009 (ip), vehicle: saline with Tween-80) | T/C (dose: 200.0 mg/kg/injection, schedule: Q04DX003 (ip), vehicle: saline sonified) | T/C (dose: 400.0 mg/kg/injection, schedule: Q01DX009 (ip), vehicle: saline sonified) | T/C (dose: 400.0 mg/kg/injection, schedule: Q04DX003 (ip), vehicle: saline sonified) | T/C (dose: 2.0 mg/kg/injection, schedule: Q01DX009 (ip), vehicle: Klucel (hydroxypropylcellulose) (HPC)) | T/C (dose: 4.0 mg/kg/injection, schedule: Q01DX009 (ip), vehicle: Klucel (hydroxypropylcellulose) (HPC)) | T/C (dose: 8.0 mg/kg/injection, schedule: Q01DX009 (ip), vehicle: Klucel (hydroxypropylcellulose) (HPC)) | T/C (dose: 16.0 mg/kg/injection, schedule: Q01DX009 (ip), vehicle: Klucel (hydroxypropylcellulose) (HPC)) |
| --- | --- | --- | --- | --- | --- | --- | --- | --- | --- | --- | --- | --- | --- | --- |
| Nc1nc(N)c2cc(CNc3ccc(C(=O)NC(CC(=O)O)CC(=O)O)cc3)ccc2n1 | 203 % of control | 226 % of control | 168 % of control | 99 % of control | 181 % of control | 204 % of control | 87 % of control | 150 % of control | 159 % of control | 113 % of control | – | – | – | – |
| COc1ccc2ccc(=O)oc2c1C1=C(C)C(=O)OC1 | – | – | – | – | – | – | – | – | – | – | 108 % of control | 100 % of control | 98 % of control | 108 % of control |

Reference: PubChem BioAssay AID330 (DTP/NCI, 2004)
